Converted amounts (≈) assume the structure as drawn.
What was measured:
Type in all cases: cell-based
[1] = test system: E. coli No. 29; assay: MIC by agar dilution, E. coli No. 29; details: E. coli No. 29, agar dilution, Mueller-Hinton agar; for MIC: Escherichia coli, 17 h, read-out: Minimal Inhibitory Concentration (MIC)
Method in brief: (§1)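 Agar incorporation method in Mueller-Hinton medium, compound in two-fold series; 10^6 CFU/ml spots; read after 17±1 h, 35°-37° C.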

[2] = test system: Ps. aeruginosa ATCC 10145; assay: MIC by agar dilution, Ps. aeruginosa ATCC 10145; details: Mueller-Hinton agar; for MIC: Pseudomonas aeruginosa, ATCC10145, 17 h, read-out: Minimal Inhibitory Concentration (MIC)
Method in brief: as §1

[3] = test system: Ent. aerogenes IFO 12979; assay: MIC by agar dilution, Ent. aerogenes IFO 12979; details: Mueller-Hinton agar; for MIC: Klebsiella aerogenes, IFO12979, 17 h, read-out: Minimal Inhibitory Concentration (MIC)
Method in brief: as §1

[4] = test system: Prov. stuartii IFO 12930; assay: MIC by agar dilution, Prov. stuartii IFO 12930; details: Mueller-Hinton agar; for MIC: Providencia stuartii, IFO12930, 17 h, read-out: Minimal Inhibitory Concentration (MIC)
Method in brief: as §1

[5] = test system: E. coli DY-1; assay: MIC by agar dilution, E. coli DY-1; details: E. coli DY-1, agar dilution, Mueller-Hinton agar; for MIC: Escherichia coli, DY1, 17 h, read-out: Minimal Inhibitory Concentration (MIC)
Method in brief: as §1

[6] = test system: B. subtilis ATCC 6633; assay: MIC by agar dilution, B. subtilis ATCC 6633; details: B. subtilis ATCC 6633, agar dilution, Mueller-Hinton agar; for MIC: Bacillus subtilis, ATCC6633, 17 h, read-out: Minimal Inhibitory Concentration (MIC)
Method in brief: as §1

[7] = test system: M. morganii DY-1; assay: MIC by agar dilution, M. morganii DY-1; details: M. morganii DY-1, agar dilution, Mueller-Hinton agar; for MIC: Morganella morganii, DY1, 17 h, read-out: Minimal Inhibitory Concentration (MIC)
Method in brief: as §1

[8] = test system: Staph. aureus C-5216; assay: MIC by agar dilution, Staph. aureus C-5216; details: Mueller-Hinton agar; for MIC: Staphylococcus aureus, C5216, 17 h, read-out: Minimal Inhibitory Concentration (MIC)
Method in brief: as §1

[9] = test system: Ps. aeruginosa DY-2; assay: MIC by agar dilution, Ps. aeruginosa DY-2; details: Ps. aeruginosa DY-2, agar dilution, Mueller-Hinton agar; for MIC: Pseudomonas aeruginosa, DY2, 17 h, read-out: Minimal Inhibitory Concentration (MIC)
Method in brief: as §1

[10] = test system: Ser. marcescens IFO 12648; assay: MIC by agar dilution, Ser. marcescens IFO 12648; details: Ser. marcescens IFO 12648, agar dilution, Mueller-Hinton agar; for MIC: Serratia marcescens, IFO12648, 17 h, read-out: Minimal Inhibitory Concentration (MIC)
Method in brief: as §1

[11] = test system: S. epidermidis ATCC 12228; assay: MIC by agar dilution, S. epidermidis ATCC 12228; details: S. epidermidis ATCC 12228, agar dilution, Mueller-Hinton agar; for MIC: Staphylococcus epidermidis, ATCC12228, 17 h, read-out: Minimal Inhibitory Concentration (MIC)
Method in brief: as §1

[12] = test system: Staph. aureus C-57; assay: MIC by agar dilution, Staph. aureus C-57; details: Mueller-Hinton agar; for MIC: Staphylococcus aureus, C57, 17 h, read-out: Minimal Inhibitory Concentration (MIC)
Method in brief: as §1

[13] = test system: Ent. cloacae IFO 13535; assay: MIC by agar dilution, Ent. cloacae IFO 13535; details: Ent. cloacae IFO 13535, agar dilution, Mueller-Hinton agar; for MIC: Enterobacter cloacae, IFO13535, 17 h, read-out: Minimal Inhibitory Concentration (MIC)
Method in brief: as §1

[14] = test system: Ps. aeruginosa NCTC 10490; assay: MIC by agar dilution, Ps. aeruginosa NCTC 10490; details: Mueller-Hinton agar; for MIC: Pseudomonas aeruginosa, NCTC10490, 17 h, read-out: Minimal Inhibitory Concentration (MIC)
Method in brief: as §1

[15] = test system: K. pneumoniae NCTC 9632; assay: MIC by agar dilution, K. pneumoniae NCTC 9632; details: K. pneumoniae NCTC 9632, agar dilution, Mueller-Hinton agar; for MIC: Klebsiella pneumoniae, NCTC9632, 17 h, read-out: Minimal Inhibitory Concentration (MIC)
Method in brief: as §1

[16] = test system: Staph. aureus Smith; assay: MIC by agar dilution, Staph. aureus Smith; details: Mueller-Hinton agar; for MIC: Staphylococcus aureus, 17 h, read-out: Minimal Inhibitory Concentration (MIC)
Method in brief: as §1

[17] = test system: Staph. aureus ATCC 6538P; assay: MIC by agar dilution, Staph. aureus ATCC 6538P; details: Staph. aureus ATCC 6538P, agar dilution, Mueller-Hinton agar; for MIC: Staphylococcus aureus, ATCC6538P, 17 h, read-out: Minimal Inhibitory Concentration (MIC)
Method in brief: as §1

[18] = test system: E. coli NIHJ JC-2; assay: MIC by agar dilution, E. coli NIHJ JC-2; details: E. coli NIHJ JC-2, agar dilution, Mueller-Hinton agar; for MIC: Escherichia coli, NIHJJC2, 17 h, read-out: Minimal Inhibitory Concentration (MIC)
Method in brief: as §1

[19] = test system: Staph. aureus C-5113; assay: MIC by agar dilution, Staph. aureus C-5113; details: Mueller-Hinton agar; for MIC: Staphylococcus aureus, C5113, 17 h, read-out: Minimal Inhibitory Concentration (MIC)
Method in brief: as §1

[20] = test system: P. vulgaris NCTC 8313; assay: MIC by agar dilution, P. vulgaris NCTC 8313; details: P. vulgaris NCTC 8313, agar dilution, Mueller-Hinton agar; for MIC: Proteus vulgaris, NCTC8313, 17 h, read-out: Minimal Inhibitory Concentration (MIC)
Method in brief: as §1

Row | SMILES | MIC [1] | MIC [2] | MIC [3] | MIC [4] | MIC [5] | MIC [6] | MIC [7] | MIC [8] | MIC [9] | MIC [10] | MIC [11] | MIC [12] | MIC [13] | MIC [14] | MIC [15] | MIC [16] | MIC [17] | MIC [18] | MIC [19] | MIC [20] | also measured
1 | CO/N=C(\C(=O)N[C@@H]1C(=O)N2C(C(=O)[O-])=C(C[n+]3ccn4c(C#N)ccc4c3C)CS[C@H]12)c1csc(N)n1 [Ex. 43, 7-β-[(Z)-2-(2-aminothiazol-4-yl)-2-methoxyiminoacetamido]-3-(1-methyl-6-cyanopyrrolo[1,2-a]pyrazinium-2-yl)methyl-3-cephem-4-carboxylate] | 0.05 µg/mL (≈ 0.0905 µM) | 0.78 µg/mL (≈ 1.41 µM) | 0.012 µg/mL (≈ 0.0217 µM) | 0.012 µg/mL (≈ 0.0217 µM) | 0.012 µg/mL (≈ 0.0217 µM) | 0.2 µg/mL (≈ 0.362 µM) | 0.05 µg/mL (≈ 0.0905 µM) | 0.78 µg/mL (≈ 1.41 µM) | 12.5 µg/mL (≈ 22.6 µM) | 0.05 µg/mL (≈ 0.0905 µM) | 0.012 µg/mL (≈ 0.0217 µM) | 12.5 µg/mL (≈ 22.6 µM) | 0.2 µg/mL (≈ 0.362 µM) | 0.78 µg/mL (≈ 1.41 µM) | 0.1 µg/mL (≈ 0.181 µM) | 0.78 µg/mL (≈ 1.41 µM) | 0.1 µg/mL (≈ 0.181 µM) | 0.025 µg/mL (≈ 0.0452 µM) | 1.56 µg/mL (≈ 2.82 µM) | ≤ 0.006 µg/mL | –
2 | CCO/N=C(\C(=O)N[C@@H]1C(=O)N2C(C(=O)[O-])=C(C[n+]3ccn4c(C(N)=O)ccc4c3C)CS[C@H]12)c1csc(N)n1 [Ex. 44, 7-β-[(Z)-2-(2-aminothiazol-4-yl)-2-ethoxyiminoacetamido]-3-(6-carbamoyl-1-methylpyrrolo[1,2-a]pyrazinium-2-yl)methyl-3-cephem-4-carboxylate] | – | – | – | – | – | – | – | – | – | – | – | – | – | – | – | – | – | – | – | – | Minimal Inhibitory Concentration (MIC) [1]: 0.025 µg/mL; Minimal Inhibitory Concentration (MIC) [2]: 3.130 µg/mL; Minimal Inhibitory Concentration (MIC) [3]: 0.050 µg/mL; Minimal Inhibitory Concentration (MIC) [4]: 0.012 µg/mL; Minimal Inhibitory Concentration (MIC) [5]: 0.025 µg/mL; Minimal Inhibitory Concentration (MIC) [6]: 0.390 µg/mL; Minimal Inhibitory Concentration (MIC) [7]: 0.100 µg/mL; Minimal Inhibitory Concentration (MIC) [8]: 1.560 µg/mL; Minimal Inhibitory Concentration (MIC) [9]: 6.250 µg/mL; Minimal Inhibitory Concentration (MIC) [10]: 0.050 µg/mL; Minimal Inhibitory Concentration (MIC) [11]: 0.100 µg/mL; Minimal Inhibitory Concentration (MIC) [12]: 100.000 µg/mL; Minimal Inhibitory Concentration (MIC) [13]: 0.100 µg/mL; Minimal Inhibitory Concentration (MIC) [14]: 0.780 µg/mL; Minimal Inhibitory Concentration (MIC) [15]: 0.050 µg/mL; Minimal Inhibitory Concentration (MIC) [16]: 0.780 µg/mL; Minimal Inhibitory Concentration (MIC) [17]: 0.200 µg/mL; Minimal Inhibitory Concentration (MIC) [18]: 0.050 µg/mL; Minimal Inhibitory Concentration (MIC) [19]: 1.560 µg/mL; Minimal Inhibitory Concentration (MIC) [20]: 0.050 µg/mL
3 | CO/N=C(\C(=O)N[C@@H]1C(=O)N2C(C(=O)[O-])=C(C[n+]3ccn4c(Cl)ccc4c3C)CS[C@H]12)c1csc(N)n1 [Ex. 45, 7-β-[(Z)-2-(2-aminothiazol-4-yl)-2-methoxyiminoacetamido]-3-(6-chloro-1-methylpyrrolo[1,2-a]pyrazinium-2-yl)methyl-3-cephem-4-carboxylate] | 0.012 µg/mL (≈ 0.0214 µM) | 3.13 µg/mL (≈ 5.57 µM) | 0.025 µg/mL (≈ 0.0445 µM) | ≤ 0.006 µg/mL | 0.012 µg/mL (≈ 0.0214 µM) | 0.1 µg/mL (≈ 0.178 µM) | 0.012 µg/mL (≈ 0.0214 µM) | 0.78 µg/mL (≈ 1.39 µM) | 6.25 µg/mL (≈ 11.1 µM) | 0.025 µg/mL (≈ 0.0445 µM) | 0.012 µg/mL (≈ 0.0214 µM) | 6.25 µg/mL (≈ 11.1 µM) | 0.05 µg/mL (≈ 0.089 µM) | 0.39 µg/mL (≈ 0.694 µM) | 0.012 µg/mL (≈ 0.0214 µM) | 0.39 µg/mL (≈ 0.694 µM) | 0.1 µg/mL (≈ 0.178 µM) | 0.025 µg/mL (≈ 0.0445 µM) | 0.39 µg/mL (≈ 0.694 µM) | ≤ 0.006 µg/mL | –
4 | CO/N=C(\C(=O)N[C@@H]1C(=O)N2C(C(=O)[O-])=C(C[n+]3ccn4c(CO)ccc4c3C)CS[C@H]12)c1csc(N)n1 [Ex. 46, 7-β-[(Z)-2-(2-aminothiazol-4-yl)-2-methoxyiminoacetamido]-3-(6-hydroxymethyl-1-methylpyrrolo[1,2-a]pyrazinium-2-yl)methyl-3-cephem-4-carboxylate] | 0.025 µg/mL (≈ 0.0448 µM) | 3.13 µg/mL (≈ 5.61 µM) | 0.05 µg/mL (≈ 0.0897 µM) | 0.012 µg/mL (≈ 0.0215 µM) | 0.025 µg/mL (≈ 0.0448 µM) | 0.39 µg/mL (≈ 0.699 µM) | 0.1 µg/mL (≈ 0.179 µM) | 1.56 µg/mL (≈ 2.8 µM) | 0.25 µg/mL (≈ 0.448 µM) | 0.05 µg/mL (≈ 0.0897 µM) | 0.1 µg/mL (≈ 0.179 µM) | 50 µg/mL (≈ 89.7 µM) | 0.1 µg/mL (≈ 0.179 µM) | 0.78 µg/mL (≈ 1.4 µM) | 0.05 µg/mL (≈ 0.0897 µM) | 0.78 µg/mL (≈ 1.4 µM) | 0.2 µg/mL (≈ 0.359 µM) | 0.05 µg/mL (≈ 0.0897 µM) | 1.56 µg/mL (≈ 2.8 µM) | 0.05 µg/mL (≈ 0.0897 µM) | –
5 | CO/N=C(\C(=O)N[C@@H]1C(=O)N2C(C(=O)[O-])=C(C[n+]3ccn4cccc4c3)CS[C@H]12)c1nc(N)sc1Cl [Ex. 47, 7-β-[(Z)-2-(2-amino-5-chlorothiazol-4-yl)-2-methoxyiminoacetamido]-3-(pyrrolo[1,2-a]pyrazinium-2-yl)methyl-3-cephem-4-carboxylate] | 0.05 µg/mL (≈ 0.0912 µM) | 0.78 µg/mL (≈ 1.42 µM) | 0.012 µg/mL (≈ 0.0219 µM) | 0.025 µg/mL (≈ 0.0456 µM) | 0.012 µg/mL (≈ 0.0219 µM) | 0.025 µg/mL (≈ 0.0456 µM) | 0.05 µg/mL (≈ 0.0912 µM) | 0.2 µg/mL (≈ 0.365 µM) | 3.13 µg/mL (≈ 5.71 µM) | 0.1 µg/mL (≈ 0.182 µM) | 0.025 µg/mL (≈ 0.0456 µM) | 1.56 µg/mL (≈ 2.85 µM) | 0.39 µg/mL (≈ 0.712 µM) | 0.05 µg/mL (≈ 0.0912 µM) | 0.05 µg/mL (≈ 0.0912 µM) | 0.2 µg/mL (≈ 0.365 µM) | 0.05 µg/mL (≈ 0.0912 µM) | 0.1 µg/mL (≈ 0.182 µM) | 0.2 µg/mL (≈ 0.365 µM) | ≤ 0.006 µg/mL | –

From patent publication US5593984A, “Cephalosporin derivatives” (Yuhan Corporation, priority 1992, dated 1997)
